IC50 data for 27 compounds are collected here from patent US9540392B2, “Thienopyrimidines” (BAYER PHARMA AKTIENGESELLSCHAFT, priority 2012, dated 2017).

The target in this assay is T1, human full-length MKNK1 (Homo sapiens, UniProt Q9BUB5, T385D).
T1 construct: GST (N); purchased Carna Biosciences 02-145; host or cells: insect cells (baculovirus expression system)
T1 sequence (Q9BUB5 1-424 isoform Q9BUB5-2 T344D): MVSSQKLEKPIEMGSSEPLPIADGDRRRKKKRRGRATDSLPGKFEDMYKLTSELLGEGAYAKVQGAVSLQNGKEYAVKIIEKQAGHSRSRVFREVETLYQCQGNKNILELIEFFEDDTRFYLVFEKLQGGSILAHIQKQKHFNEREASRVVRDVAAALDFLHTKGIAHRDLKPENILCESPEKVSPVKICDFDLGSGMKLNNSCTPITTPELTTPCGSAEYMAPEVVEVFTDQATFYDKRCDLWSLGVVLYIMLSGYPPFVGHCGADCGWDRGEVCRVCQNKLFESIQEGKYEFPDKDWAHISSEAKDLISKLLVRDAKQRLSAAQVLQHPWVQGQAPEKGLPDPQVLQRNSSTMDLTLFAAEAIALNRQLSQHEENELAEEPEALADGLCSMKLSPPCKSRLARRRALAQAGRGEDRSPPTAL
The experiment in a line: MKNK1 kinase high ATP assay (TR-FRET). The conditions noted are these: 2 mM ATP, after preincubation with MKNK1; read-out: MKNK1 IC50 (MKNK1 high ATP). It counts as biochemical. In short, it runs like this:
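Compound was preincubated 15 min at 22° C. with MKNK1 in 50 mM HEPES pH 7.5, 5 mM MgCl2, 1.0 mM DTT, then the reaction ran 30 min at 22° C. with 2 mM ATP and 0.06 μM biotinylated peptide (final).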
As for `O=C(NCc1cccnc1)C1CCc2c(sc3ncnc(Nc4ccc5[nH]ncc5c4)c23)C1` (stereo not drawn) [Example 32, 4-(1H-Indazol-5-ylamino)-N-(pyridin-3-ylmethyl)-5,6,7,8-tetrahydro[1] benzothieno [2,3-d]pyrimidine-7-carboxamide], the IC50 was 5 nM.

Take `O=C(NCC(F)(F)F)C1CCc2c(sc3ncnc(Nc4ccc5[nH]ncc5c4)c23)C1` (stereo not drawn) [Example 33, 4-(1H-Indazol-5-ylamino)-N-(2,2,2-trifluoroethyl)-5,6,7,8-tetrahydro[1] benzothieno [2,3-d]pyrimidine-7-carboxamide]: the IC50 came to 5 nM.

In the case of `CN(C)c1ccc(CNC(=O)C2CCc3c(sc4ncnc(Nc5ccc6[nH]ncc6c5)c34)C2)cc1` (stereo not drawn) [Example 34, N-[4-(Dimethylamino)benzyl]-4-(1H-indazol-5-ylamino)-5,6,7,8-tetrahydro[1] benzothieno [2,3-d]pyrimidine-7-carboxamide], the IC50 is 5 nM.

On to `C#CCN(C)C(=O)C1CCc2c(sc3ncnc(Nc4ccc5[nH]ncc5c4)c23)C1` (stereo not drawn) [Example 35, 4-(1H-Indazol-5-ylamino)-N-methyl-N-(prop-2-yn-1-yl)-5,6,7,8-tetrahydro[1] benzothieno [2,3-d]pyrimidine-7-carboxamide], for which the IC50 turned out to be 5 nM.

`O=C(NCCc1ccncc1)C1CCc2c(sc3ncnc(Nc4ccc5[nH]ncc5c4)c23)C1` (stereo not drawn) [Example 36, 4-(1H-Indazol-5-ylamino)-N-[2-(pyridin-4-yl)ethyl]-5,6,7,8-tetrahydro[1] benzothieno [2,3-d]pyrimidine-7-carboxamide]: the 50% inhibitory concentration (IC50) was found to be 6 nM.

Consider `O=C(NCCc1ccccc1)C1CCc2c(sc3ncnc(Nc4ccc5[nH]ncc5c4)c23)C1` (stereo not drawn) [Example 37, 4-(1H-Indazol-5-ylamino)-N-(2-phenylethyl)-5,6,7,8-tetrahydro[1] benzothieno [2,3-d]pyrimidine-7-carboxamide], for which the IC50 came to 6 nM.

As to `CN(C)CCNC(=O)C1CCc2c(sc3ncnc(Nc4ccc5[nH]ncc5c4)c23)C1` (stereo not drawn) [Example 38, N-[2-(Dimethylamino)ethyl]-4-(1H-indazol-5-ylamino)-5,6,7,8-tetrahydro[1] benzothieno [2,3-d]pyrimidine-7-carboxamide], the IC50 was 6 nM.

As for `CC(C)CNC(=O)C1CCc2c(sc3ncnc(Nc4ccc5[nH]ncc5c4)c23)C1` (stereo not drawn) [Example 39, 4-(1H-Indazol-5-ylamino)-N-(2-methylpropyl)-5,6,7,8-tetrahydro[1] benzothieno [2,3-d]pyrimidine-7-carboxamide], the IC50 was 6 nM.

Turning to `CN(C)CCCNC(=O)C1CCc2c(sc3ncnc(Nc4ccc5[nH]ncc5c4)c23)C1` (stereo not drawn) [Example 40, N-[3-(Dimethylamino)propyl]-4-(1H-indazol-5-ylamino)-5,6,7,8-tetrahydro[1] benzothieno [2,3-d]pyrimidine-7-carboxamide], the IC50 amounted to 7 nM.

For `CN(CCO)C(=O)C1CCc2c(sc3ncnc(Nc4ccc5[nH]ncc5c4)c23)C1` (stereo not drawn) [Example 41, N-(2-Hydroxyethyl)-4-(1H-indazol-5-ylamino)-N-methyl-5,6,7,8-tetrahydro[1] benzothieno [2,3-d]pyrimidine-7-carboxamide], the concentration for half-maximal inhibition (IC50) was found to be 8 nM.

In the case of `O=C(NCCN1CCOCC1)C1CCc2c(sc3ncnc(Nc4ccc5[nH]ncc5c4)c23)C1` (stereo not drawn) [Example 42, 4-(1H-Indazol-5-ylamino)-N-[2-(morpholin-4-yl)ethyl]-5,6,7,8-tetrahydro[1] benzothieno [2,3-d]pyrimidine-7-carboxamide], the IC50 was found to be 9 nM.

As to `O=C(C1CCc2c(sc3ncnc(Nc4ccc5[nH]ncc5c4)c23)C1)N1CCC1` (stereo not drawn) [Example 43, Azetidin-1-yl[4-(1H-indazol-5-ylamino)-5,6,7,8-tetrahydro[1]benzothieno [2,3-d]pyrimidin-7-yl]methanone], the IC50 amounted to 9 nM.

As to `O=C(NC1CC1)C1CCc2c(sc3ncnc(Nc4ccc5[nH]ncc5c4)c23)C1` (stereo not drawn) [Example 44, N-Cyclopropyl-4-(1H-indazol-5-ylamino)-5,6,7,8-tetrahydro[1] benzothieno [2,3-d]pyrimidine-7-carboxamide], the IC50 came out at 9 nM.

As for `CN(C)CCN(C)C(=O)C1CCc2c(sc3ncnc(Nc4ccc5[nH]ncc5c4)c23)C1` (stereo not drawn) [Example 45, N-[2-(Dimethylamino)ethyl]-4-(1H-indazol-5-ylamino)-N-methyl-5,6,7,8-tetrahydro[1] benzothieno [2,3-d]pyrimidine-7-carboxamide], the IC50 was found to be 9 nM.

In the case of `CCNC(=O)C1CCc2c(sc3ncnc(Nc4ccc5[nH]ncc5c4)c23)C1` (stereo not drawn) [Example 46, N-Ethyl-4-(1H-indazol-5-ylamino)-5,6,7,8-tetrahydro[1] benzothieno [2,3-d]pyrimidine-7-carboxamide], the IC50 was found to be 10 nM.

Consider `O=C(C1CCc2c(sc3ncnc(Nc4ccc5[nH]ncc5c4)c23)C1)N1CCOCC1` (stereo not drawn) [Example 47, [4-(1H-Indazol-5-ylamino)-5,6,7,8-tetrahydro[1]benzothieno [2,3-d]pyrimidin-7-yl](morpholin-4-yl)methanone], for which the IC50 amounted to 11 nM.

On to `COCCCNC(=O)C1CCc2c(sc3ncnc(Nc4ccc5[nH]ncc5c4)c23)C1` (stereo not drawn) [Example 48, 4-(1H-Indazol-5-ylamino)-N-(3-methoxypropyl)-5,6,7,8-tetrahydro[1] benzothieno [2,3-d]pyrimidine-7-carboxamide], for which the IC50 turned out to be 12 nM.

Consider `O=C(NCCCN1CCCC1=O)C1CCc2c(sc3ncnc(Nc4ccc5[nH]ncc5c4)c23)C1` (stereo not drawn) [Example 49, 4-(1H-Indazol-5-ylamino)-N-[3-(2-oxopyrrolidin-1-yl)propyl]-5,6,7,8-tetrahydro[1] benzothieno [2,3-d]pyrimidine-7-carboxamide], for which the IC50 is 13 nM.

`COCCNC(=O)C1CCc2c(sc3ncnc(Nc4ccc5[nH]ncc5c4)c23)C1` (stereo not drawn) [Example 50, 4-(1H-Indazol-5-ylamino)-N-(2-methoxyethyl)-5,6,7,8-tetrahydro[1] benzothieno [2,3-d]pyrimidine-7-carboxamide]: the IC50 is 14 nM.

Consider `O=C(C1CCc2c(sc3ncnc(Nc4ccc5[nH]ncc5c4)c23)C1)N1CCCC1` (stereo not drawn) [Example 51, [4-(1H-Indazol-5-ylamino)-5,6,7,8-tetrahydro[1]benzothieno [2,3-d]pyrimidin-7-yl](pyrrolidin-1-yl)methanone], for which the IC50 is 15 nM.

Turning to `O=C(C1CCc2c(sc3ncnc(Nc4ccc5[nH]ncc5c4)c23)C1)N1CCN(C(=O)N2CCCC2)CC1` (stereo not drawn) [Example 52, [4-(1H-Indazol-5-ylamino)-5,6,7,8-tetrahydro[1]benzothieno [2,3-d]pyrimidin-7-yl][4-(pyrrolidin-1-ylcarbonyl)piperazin-1-yl]methanone], the half-inhibitory concentration (IC50) stood at 20 nM.

On to `CCOC(=O)C1CCc2c(sc3ncnc(Nc4cc5cn[nH]c5cc4Cl)c23)C1` (stereo not drawn) [Example 53, Ethyl 4-[(6-chloro-1H-indazol-5-yl)amino]-5,6,7,8-tetrahydro[1]benzothieno[2,3-d]pyrimidine-7-carboxylate], for which the IC50 is 9 nM.

`CCOC(=O)C1CCc2c(sc3ncnc(Nc4cc5cn[nH]c5cc4F)c23)C1` (stereo not drawn) [Example 54, Ethyl 4-[(6-fluoro-1H-indazol-5-yl)amino]-5,6,7,8-tetrahydro[1]benzothieno[2,3-d]pyrimidine-7-carboxylate]: the IC50 stood at 19 nM.

Consider `O=C(O)C1CCc2c(sc3ncnc(Nc4cc5cn[nH]c5cc4F)c23)C1` (stereo not drawn) [Example 55, 4-[(6-Fluoro-1H-indazol-5-yl)amino]-5,6,7,8-tetrahydro[1]benzothieno[2,3-d]pyrimidine-7-carboxylic acid], for which the IC50 was 37 nM.

Consider `COc1cc2[nH]ncc2cc1Nc1ncnc2sc3c(c12)CCC(C(=O)O)C3` (stereo not drawn) [Example 57, 4-[(6-Methoxy-1H-indazol-5-yl)amino]-5,6,7,8-tetrahydro[1]benzothieno[2,3-d]pyrimidine-7-carboxylic acid], for which the IC50 was 7 nM.

Take `CCN(C(=O)C1CCc2c(sc3ncnc(Nc4cc5cn[nH]c5cc4OC)c23)C1)C(C)C` (stereo not drawn) [Example 67, N-Ethyl-4-[(6-Methoxy-1H-indazol-5-yl)amino]-N-(propan-2-yl)-5,6,7,8-tetrahydro[1]benzothieno[2,3-d]pyrimidine-7-carboxamide]: the IC50 was 0.7 nM.

`CCCN(C)C(=O)C1CCc2c(sc3ncnc(Nc4cc5cn[nH]c5cc4OC)c23)C1` (stereo not drawn) [Example 68, 4-[(6-Methoxy-1H-indazol-5-yl)amino]-N-methyl-N-propyl-5,6,7,8-tetrahydro[1]benzothieno[2,3-d]pyrimidine-7-carboxamide]: the IC50 amounted to 0.7 nM.
